# Target: T1, purified human TYMS (Homo sapiens, UniProt P04818)
# T1 construct: 6xHis (N); made in house; host or cells: E. coli BL21 (DE3), vector pQE80L-hTYMS
# Assay: Competitive drug displacement assay (tritium TYMS assay)
# Format: biochemical
# Description: For these experiments the TYMS protein was first incubated with each drug, and the reaction was then initiated by addition of 5,10-mTHF and dUMP using different concentrations of either 5,10-mTHF or dUMP to change the substrate/drug ratio. If there was competition between one of the substrates and the drug for the same binding site, then increasing the substrate concentration would displace more of the prebound drug and shift the equilibrium toward the enzyme/substrate complex, thus allowing the conversion of dUMP to proceed (Figure 7A). […]
# all components including 2 µg TYMS protein to show the range of the assay, the background signal, and the dependence on 5,10-mTHF (Supplemental Figure 2C). To determine the signal from the [5-3H]dUMP tracer used in each reaction the same amount of the dUMP substrate with the [5-3H]dUMP tracer accounting for 0.06% of the final dUMP concentration was added directly to 5 mL of ultima gold liquid scintillation cocktail (Supplemental Figure 2C).
# All reactions were performed in biological duplicate and technical duplicate. Results were analyzed using GraphPad Prism 9.
# Competitive drug displacement assay
# The tritium based TYMS catalytic activity assay was modified to determine if TYMS inhibition from 19-S, 19-S5, and 19-S7 was the result of competitive binding with either the dUMP substrate or the 5,10-mTHF cofactor. The competitive drug displacement assay utilized the standard reaction conditions for the tritium-based TYMS catalytic activity assay including 40 µM dUMP (Sigma Aldrich, Cat # D3876) with the [5- 3H]dUMP tracer (ViTrax, VT122) accounting for 0.06% of the final dUMP concentration and 100 µM 5,10- methylene tetrahydrofolate (defined as 1x dUMP and 1x 5,10-mTHF). Concentrations of total dUMP and 5,10- mTHF were then changed relative to these 1x concentrations to concisely indicate the changes in either the substrate or cofactor concentration. The highest 5x concentration of 5,10 - […]
# 5x concentration of total dUMP was not limited by solubility, although increases were performed in the same increments as 5,10-mTHF for comparison and 0.06% of the [5-3H]dUMP tracer was maintained at all concentrations. The remaining components in each 200 µL reaction were consistent in all reactions and included 2 µg of purified human TYMS in 50 mM KH2PO4 (Sigma Aldrich, Cat # P0662) and 100 mM β- mercaptoethanol (Sigma Aldrich, Cat # M7522). Control antifolate inhibitor PEM (Sigma Aldrich, Cat # PHR1596) was performed for reference of a TYMS specific classical antifolate and to […]
# Human TYMS and DHFR preparation
# Human Thymidylate Synthase (hTYMS) and human Dihydrofolate Reductase (hDHFR) were both expressed in BL21 (DE3) E. coli cells, using a standard BL21 transformation protocol, with the expression vector pQE80L-hTYMS (gift from Maria Paola Costi, University of Modena and Reggio Emilio, Italy) and pET100/D- TOPO (Invitrogen, Cat # K10001), respectively. Both vectors contained an N-terminal 6x Histidine tag attached to either hTYMS or hDHFR. After bacterial transformation, cells
# [1] = TS preincubated with drug, Figure 7
# T1 sequence (P04818 whole entry): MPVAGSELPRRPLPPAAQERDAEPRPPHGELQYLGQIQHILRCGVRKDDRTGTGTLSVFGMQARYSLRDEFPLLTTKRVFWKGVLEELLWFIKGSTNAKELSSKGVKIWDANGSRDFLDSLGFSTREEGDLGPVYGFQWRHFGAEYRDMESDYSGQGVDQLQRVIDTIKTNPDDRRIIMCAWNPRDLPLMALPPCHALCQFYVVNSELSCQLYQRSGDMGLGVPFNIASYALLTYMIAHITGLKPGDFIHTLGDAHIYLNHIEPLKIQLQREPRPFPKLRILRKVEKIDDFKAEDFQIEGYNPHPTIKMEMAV
compound,measurement,setting,value
CCc1nc(N)nc(N)c1-c1ccc(N(C)Cc2ccc3c(c2)OCO3)c([N+](=O)[O-])c1 [Compound 19-S7],Mechanism of TYMS inhibition,,blocking the folate-binding site
same,"dUMP conversion with increasing 5,10-mTHF concentration",[1],increased the amount of dUMP conversion
same,dUMP conversion with increasing dUMP concentration,[1],the amount of dUMP conversion did not increase

# Reference: article PMC10386886, “First-in-class multifunctional TYMS nonclassical antifolate inhibitor with potent in vivo activity that prolongs survival” (JCI Insight, 2023)
